Reference: patent US12178809B2, “Pyridinyl sulfonamide derivatives, pharmaceutical compositions and uses thereof” (Boehringer Ingelheim International GmbH, priority 2018, dated 2024)
Where a name gives a salt, the structure may show the parent alone. Read-outs that look alike come from different tables or passages of the source.

Assays:
[1] = biological target: AOC1 (Homo sapiens (Human), UniProt P19801); experiment: AOC1 biochemical assay (Amplex Red)
Experimental: The Amplex® Red Assay (available from Thermo Fisher Scientific) provides a sensitive method for the detection of H2O2 generated during enzymatic reactions like the amine oxidation catalyzed by AOC1. The assay reagent is a colorless substrate (N-acetyl-3,7-dihydroxyphenoxazine) that reacts in a 1:1 stoichiometry with hydrogen peroxide (H2O2) to produce the fluorescent dye resorufin (7-hydroxyphenoxazin-3-one, excitation/emission maxima=570/585 nm).
An aliquot of 3 μL of the compound dilution is added to a 384 well plate (Optiplate, PS, flat bottom F, black, PERKIN ELMER, #6007270) in a DMSO concentration of 6.6%.
An AOC1 enzyme aliquot (#8297-AO-010, R&D Systems) is thawed on ice, diluted in reaction buffer and added in a volume of 7 μL to the wells to give a final assay concentration of 1 ng/well. After incubation of inhibitor and enzyme for 30 minutes at 37° C., the enzymatic reaction is started with the addition of 10 μL of Amplex® Red reaction mix (final assay concentration: 100 mM sodiumphosphate, 120 μM Amplex® Red reagent (#A22177 Molecular Probes), 1.5 U/mL Horseradish Peroxidase (#P8375 Sigma-Aldrich), 200 μM putrescine (#P7505 Sigma-Alrdich), 0.05% Pluronic F-127 (#P3000MP Sigma-Aldrich), pH 7.4, 37° C.).
After an incubation for 30 minutes at 37° C. the turnover of the substrate is determined directly (or after the addition of an excess of an amine-oxidase inhibitor) with a fluorescence reader (Ex 540 nm/Em 590 nm) like Envision 2104 Multilabel Reader (PERKIN ELMER).

[2] = biological target: AOC2 (Homo sapiens (Human), UniProt O75106); experiment: AOC2 biochemical assay (Amplex Red)
Experimental: An aliquot of 5 μL of the compound dilution is added to a 96 well plate (flat bottom F, black, GREINER bio-one, #655900) in a DMSO concentration of 2%. […] Cells are cultured for 3 days in EMEM culture medium containing 10% FCS (#04-00-1A, Biological Industries). After washing twice with ice cold PBS, cells are lysed by mechanic homogenation and cleared supernatants are shock frozen in liquid nitrogen and stored at -80° C. […] An Aliquot of 45 μL is added to the compound dilution and incubated for 30 min at 37° C. The enzymatic reaction is started with the addition of 50 μL of Amplex® Red reaction mix (final assay concentration: 100 mM sodiumphosphate, 120 μM Amplex® Red reagent (#A22177 Molecular Probes), 1.5 U/mL Horseradish Peroxidase (#P8375 Sigma-Aldrich), 2 mM phenylethylamine (#[…] Sigma-Aldrich), 0.05% Pluronic F-127 (#P3000MP Sigma-Aldrich), pH 7.4, 37° C.). The turnover per time of the substrate is determined directly with a fluorescence reader (Ex 540 nm/Em 590 nm) like Envision 2104 Multilabel Reader (PERKIN ELMER) for 60 min.

[3] = biological target: human AOC3 enzyme (Homo sapiens (Human), UniProt Q16853); experiment: AOC3 biochemical assay (MAO-Glo)
Description: The MAO-Glo™ Assay (commercially available from PROMEGA, #V1402) provides a sensitive method for the measurement of monoamine oxidase (MAO) activity (Valley, M. P. et al., 2006, Anal. Biochem. 359: 238-246) from a variety of tissues, biofluids or recombinant expressed or purified enzymes. As substrate a derivate of the beetle luciferin ((4S)-4,5-dihydro-2-(6-hydroxybenzothiazolyl)-4-thiazole-carboxylic acid) is used, which is oxidized at a primary amine moiety. After a spontaneous elimination and a catalyzed esterase reaction, the turnover of the luciferine by the luciferase is recorded as a signal of AOC3 activity.
An aliquot of 3 μL of the compound dilution is added to a 384 well plate (Optiplate, PS, flat bottom, white, PERKIN ELMER, #6007290) with a final DMSO concentration of 6.6%. Recombinant CHO cells, overexpressing the human (1500 cells/well), mouse (1000 cells/well) or rat (500 cells/well) AOC3 enzyme are diluted in reaction buffer and added in a volume of 15 μL to the wells. After incubation for 20 minutes at 37° C., 2 μL of MAO substrate (dissolved in DMSO at 16 mM, adjusted to assay concentration in reaction buffer to a final assay concentration of 20 μM) is added and further incubated for 60 minutes at 37° C. The turnover of the substrate is determined by the addition of 20 μL of the detection-mix which was generated by the addition of reconstitution buffer with esterase (PROMEGA, #V1402) to the luciferine detection reagent (PROMEGA, #V1402). After an incubation period of 20 minutes, the luminescent signal is measured with Envision 2104 Multilabel Reader (PERKIN ELMER).

[4] = comparison table, read-out: IC50 AOC1
[5] = comparison table, read-out: IC50 AOC2
[6] = comparison table, read-out: IC50 AOC3

Chain of human AOC3 enzyme (Q16853 whole entry): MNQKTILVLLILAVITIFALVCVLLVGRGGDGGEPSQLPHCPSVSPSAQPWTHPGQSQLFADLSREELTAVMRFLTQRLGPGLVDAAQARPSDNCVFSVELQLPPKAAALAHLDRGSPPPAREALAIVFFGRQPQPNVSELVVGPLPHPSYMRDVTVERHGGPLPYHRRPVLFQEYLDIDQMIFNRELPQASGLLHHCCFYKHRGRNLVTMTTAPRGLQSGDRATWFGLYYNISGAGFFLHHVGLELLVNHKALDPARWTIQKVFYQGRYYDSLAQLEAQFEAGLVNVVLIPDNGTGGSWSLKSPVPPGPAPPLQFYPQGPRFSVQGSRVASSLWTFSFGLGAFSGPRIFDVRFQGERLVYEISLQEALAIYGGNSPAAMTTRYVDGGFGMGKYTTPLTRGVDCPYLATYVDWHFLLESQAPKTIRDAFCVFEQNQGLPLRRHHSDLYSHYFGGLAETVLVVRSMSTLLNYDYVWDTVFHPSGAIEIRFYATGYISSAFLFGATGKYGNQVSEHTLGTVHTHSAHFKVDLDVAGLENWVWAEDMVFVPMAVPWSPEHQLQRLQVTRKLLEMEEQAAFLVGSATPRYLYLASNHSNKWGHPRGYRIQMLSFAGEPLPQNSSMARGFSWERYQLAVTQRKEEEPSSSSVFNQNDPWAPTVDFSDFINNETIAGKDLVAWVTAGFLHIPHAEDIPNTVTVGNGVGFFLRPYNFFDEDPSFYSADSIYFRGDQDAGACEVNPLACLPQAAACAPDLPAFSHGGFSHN
Chain of AOC1 (P19801 20-751): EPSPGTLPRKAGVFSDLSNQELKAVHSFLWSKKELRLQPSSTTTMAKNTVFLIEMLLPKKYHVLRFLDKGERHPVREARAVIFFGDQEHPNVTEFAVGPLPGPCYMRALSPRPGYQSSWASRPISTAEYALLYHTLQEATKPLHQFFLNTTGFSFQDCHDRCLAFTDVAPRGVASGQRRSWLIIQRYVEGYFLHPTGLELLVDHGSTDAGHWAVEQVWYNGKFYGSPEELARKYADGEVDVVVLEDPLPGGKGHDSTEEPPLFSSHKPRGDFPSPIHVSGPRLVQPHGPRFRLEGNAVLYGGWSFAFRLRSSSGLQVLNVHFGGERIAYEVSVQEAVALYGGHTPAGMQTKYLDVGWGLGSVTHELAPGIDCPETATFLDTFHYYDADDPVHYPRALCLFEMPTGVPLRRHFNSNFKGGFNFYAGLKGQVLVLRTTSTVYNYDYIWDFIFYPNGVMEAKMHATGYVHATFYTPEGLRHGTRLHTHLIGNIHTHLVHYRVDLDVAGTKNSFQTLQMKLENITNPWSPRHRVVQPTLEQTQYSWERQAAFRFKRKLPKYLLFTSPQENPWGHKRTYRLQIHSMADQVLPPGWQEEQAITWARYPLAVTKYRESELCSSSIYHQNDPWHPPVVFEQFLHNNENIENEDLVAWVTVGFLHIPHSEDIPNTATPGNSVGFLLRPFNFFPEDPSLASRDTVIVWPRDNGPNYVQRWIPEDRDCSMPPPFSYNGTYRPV
Chain of AOC2 (O75106 whole entry): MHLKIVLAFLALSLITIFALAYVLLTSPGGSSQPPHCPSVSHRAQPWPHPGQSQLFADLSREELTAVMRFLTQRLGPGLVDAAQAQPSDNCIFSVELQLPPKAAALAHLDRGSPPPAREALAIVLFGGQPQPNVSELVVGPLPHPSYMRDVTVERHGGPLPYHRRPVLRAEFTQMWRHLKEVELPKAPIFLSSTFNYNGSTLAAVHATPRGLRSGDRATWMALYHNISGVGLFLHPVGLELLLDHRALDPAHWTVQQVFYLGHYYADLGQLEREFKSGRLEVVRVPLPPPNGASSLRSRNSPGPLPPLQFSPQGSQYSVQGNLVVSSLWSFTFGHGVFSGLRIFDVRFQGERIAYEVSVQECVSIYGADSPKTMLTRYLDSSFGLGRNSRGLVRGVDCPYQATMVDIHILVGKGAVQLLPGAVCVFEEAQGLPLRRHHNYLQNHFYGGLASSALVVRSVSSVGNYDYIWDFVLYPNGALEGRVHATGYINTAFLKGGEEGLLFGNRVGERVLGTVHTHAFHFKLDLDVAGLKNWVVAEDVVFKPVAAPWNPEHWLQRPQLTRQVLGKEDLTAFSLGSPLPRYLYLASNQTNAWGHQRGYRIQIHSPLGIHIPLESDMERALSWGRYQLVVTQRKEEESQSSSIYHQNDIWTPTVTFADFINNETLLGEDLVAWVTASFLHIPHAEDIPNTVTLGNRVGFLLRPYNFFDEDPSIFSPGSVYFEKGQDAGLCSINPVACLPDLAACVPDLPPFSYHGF

Row | IC50 ([1]; read-out: AOC1 IC50) | IC50 ([2]; read-out: AOC2 IC50) | IC50 ([3]; read-out: AOC3 IC50) | IC50 [1, 4] | IC50 [2, 5] | IC50 [3, 6] | fold less active against AOC2 as compared to AOC3 (ratio IC50 AOC2/IC50 AOC3) [2] | IC50 ([2]; read-out: IC50 AOC2) | Compound
1 | 6.17 µM | 0.489 µM | 0.039 µM | – | – | – | – | – | NC/C(=C\F)COc1ccc(S(=O)(=O)N2CCC(C(=O)N3CCOCC3)(c3ccccc3)CC2)cn1 [Example 09]
2 | > 50 µM | 0.551 µM | 0.067 µM | – | – | – | – | – | NC/C(=C\F)COc1ccc(S(=O)(=O)N2CC[C@@H](O)C2)cn1 [Example 36]
3 | > 50 µM | 0.214 µM | 0.032 µM | – | – | – | – | – | CCNC(=O)CC1CCN(S(=O)(=O)c2ccc(OC/C(=C/F)CN)nc2)CC1 [Example 19]
4 | 14.3 µM | 0.306 µM | 0.041 µM | – | – | – | – | – | CC(=O)N1CC(C2CCN(S(=O)(=O)c3ccc(OC/C(=C/F)CN)nc3)CC2)C1 [Example 14]
5 | > 50 µM | 0.164 µM | 0.045 µM | – | – | – | – | – | CC(C)(O)C1CN(S(=O)(=O)c2ccc(OC/C(=C/F)CN)nc2)C1 [Example 26]
6 | > 50 µM | 0.263 µM | 0.038 µM | – | – | – | – | – | CC(=O)NCC1CCN(S(=O)(=O)c2ccc(OC/C(=C/F)CN)nc2)CC1 [Example 15]
7 | > 50 µM | 0.006 µM | 2.69 µM | – | – | – | – | – | CC1(C(=O)O)CCN(S(=O)(=O)c2ccc(OC/C(=C/F)CN)nc2)CC1 [Example 57]
8 | – | – | – | 1.17 µM | 1.12 µM | 0.059 µM | – | – | NC/C(=C\F)COc1cnc(N2CC[C@H](O)C2)nc1 [Example 6 of WO 2018/027892, reference compound]
9 | 22.6 µM | 0.451 µM | 0.015 µM | – | – | – | – | – | NC/C(=C\F)COc1ccc(S(=O)(=O)N2CC(F)(F)C2)cn1 [Example 37]
10 | 39.5 µM | 0.073 µM | 0.017 µM | – | – | – | – | – | NC/C(=C\F)COc1ccc(S(=O)(=O)N2CC(C3CCN(C(=O)C4CC4)CC3)C2)cn1 [Example 32]
11 | – | – | – | > 50 µM | 1.16 µM | 0.008 µM | ca. 145 fold | 1.16 µM | CN(C)S(=O)(=O)c1ccc(OC/C(=C/F)CN)cc1 [Compound 14 of WO 2013/163675, reference compound]
12 | 36.5 µM | 0.069 µM | 0.016 µM | – | – | – | – | – | NC/C(=C\F)COc1ccc(S(=O)(=O)N2CCC(F)(F)C2)cn1 [Example 43]
13 | 17 µM | 0.262 µM | 0.019 µM | – | – | – | – | – | NC/C(=C\F)COc1ccc(S(=O)(=O)N2CCC2)cn1 [Example 39]
14 | 15.8 µM | 0.014 µM | 0.014 µM | – | – | – | – | – | CCNC(=O)C1(C)CCN(S(=O)(=O)c2ccc(OC/C(=C/F)CN)nc2)CC1 [Example 34]
15 | > 50 µM | 0.385 µM | 0.038 µM | – | – | – | – | – | CN(C)C(=O)C1CCN(S(=O)(=O)c2ccc(OC/C(=C/F)CN)nc2)CC1 [Example 12]
16 | 11.4 µM | 0.126 µM | 0.046 µM | – | – | – | – | – | NC/C(=C\F)COc1ccc(S(=O)(=O)N2C[C@H]3C[C@@]3(C(=O)N3CCOCC3)C2)cn1 [Example 30]
17 | 41.8 µM | 0.315 µM | 0.009 µM | – | – | – | – | – | COC(=O)[C@H]1[C@@H]2CN(S(=O)(=O)c3ccc(OC/C(=C/F)CN)nc3)C[C@@H]21 [Example 52]

Row | IC50 ([1]; read-out: AOC1 IC50) | IC50 ([2]; read-out: AOC2 IC50) | IC50 ([3]; read-out: AOC3 IC50) | IC50 [1, 4] | IC50 [2, 5] | IC50 [3, 6] | fold less active against AOC2 as compared to AOC3 (ratio IC50 AOC2/IC50 AOC3) [2] | IC50 ([2]; read-out: IC50 AOC2) | Compound
18 | > 50 µM | 0.262 µM | 0.03 µM | – | – | – | – | – | CN(C)C(=O)CC1CCN(S(=O)(=O)c2ccc(OC/C(=C/F)CN)nc2)CC1 [Example 16]
19 | > 50 µM | 0.019 µM | 0.015 µM | – | – | – | – | – | COC(=O)C1(C)CCN(S(=O)(=O)c2ccc(OC/C(=C/F)CN)nc2)CC1 [Example 53]
20 | 26.7 µM | 0.164 µM | 0.036 µM | – | – | – | – | – | NC/C(=C\F)COc1ccc(S(=O)(=O)N2CC[C@H](C(=O)N3CCOCC3)C2)cn1 [Example 25]
21 | 48 µM | 0.325 µM | 0.013 µM | – | – | – | – | – | COC(=O)C1CCN(S(=O)(=O)c2ccc(OC/C(=C/F)CN)nc2)CC1 [Example 51, 1-[6-((E)-2-Aminomethyl-3-fluoro-allyloxy)-pyridine-3-sulfonyl]-piperidine-4-carboxylic acid methyl ester trifluoroacetate]
22 | 25.4 µM | 0.123 µM | 0.005 µM | – | – | – | – | – | NC/C(=C\F)COc1ccc(S(=O)(=O)N2CC3CC3C2)cn1 (centres unmarked) [Example 41]
23 | > 50 µM | 0.121 µM | 0.021 µM | – | – | – | – | – | NC/C(=C\F)COc1ccc(S(=O)(=O)N2CC(C(N)=O)C2)cn1 [Example 31]
24 | > 50 µM | 0.531 µM | 0.037 µM | – | – | – | – | – | CNC(=O)NC1CCN(S(=O)(=O)c2ccc(OC/C(=C/F)CN)nc2)CC1 [Example 07]
25 | > 50 µM | 0.19 µM | 0.02 µM | – | – | – | – | – | CN1CCN(C2CCN(S(=O)(=O)c3ccc(OC/C(=C/F)CN)nc3)CC2)C1=O [Example 21]
26 | > 50 µM | 0.192 µM | 0.054 µM | – | – | – | – | – | CC(=O)N(C)C1CCN(S(=O)(=O)c2ccc(OC/C(=C/F)CN)nc2)CC1 [Example 20]
27 | > 50 µM | 0.574 µM | 0.014 µM | – | – | – | – | – | CNC(=O)C1CCN(S(=O)(=O)c2ccc(OC/C(=C/F)CN)nc2)CC1 [Example 44, 1-[6-((E)-2-Aminomethyl-3-fluoro-allyloxy)-pyridine-3-sulfonyl]-piperidine-4-carboxylic acid methylamide trifluoroacetate]
28 | > 50 µM | 0.234 µM | 0.01 µM | – | – | – | – | – | COC1CCN(S(=O)(=O)c2ccc(OC/C(=C/F)CN)nc2)CC1 [Example 46]
29 | 34.7 µM | 0.034 µM | 0.089 µM | – | – | – | – | – | NC/C(=C\F)COc1ccc(S(=O)(=O)N2CCC(C(=O)O)CC2)cn1 [Example 56]
30 | > 50 µM | 0.087 µM | 0.02 µM | > 50 µM | 0.087 µM | 0.02 µM | – | – | COC1CN(S(=O)(=O)c2ccc(OC/C(=C/F)CN)nc2)C1 [Example 42]
31 | > 49.9 µM | 0.363 µM | 0.114 µM | – | – | – | – | – | CC1(C(=O)NC2CCOCC2)CCN(S(=O)(=O)c2ccc(OC/C(=C/F)CN)nc2)CC1 [Example 58, 1-[6-((E)-2-Aminomethyl-3-fluoro-allyloxy)-pyridine-3-sulfonyl]-4-methyl-piperidine-4-carboxylic acid (tetrahydropyran-4-yl)-amide trifluoroacetate]
32 | > 50 µM | 0.278 µM | 0.013 µM | – | – | – | – | – | NC/C(=C\F)COc1ccc(S(=O)(=O)N2CCCC2)cn1 [Example 38]
33 | > 50 µM | 0.188 µM | 0.011 µM | – | – | – | – | – | COC(=O)CC1CCN(S(=O)(=O)c2ccc(OC/C(=C/F)CN)nc2)CC1 [Example 22]

Row | Compound | IC50 ([1]; read-out: AOC1 IC50) | IC50 ([2]; read-out: AOC2 IC50) | IC50 ([3]; read-out: AOC3 IC50) | IC50 [1, 4] | IC50 [2, 5] | IC50 [3, 6] | fold less active against AOC2 as compared to AOC3 (ratio IC50 AOC2/IC50 AOC3) [2] | IC50 ([2]; read-out: IC50 AOC2)
34 | CNC(=O)[C@H]1[C@@H]2CN(S(=O)(=O)c3ccc(OC/C(=C/F)CN)nc3)C[C@@H]21 [Example 01, trans-3-[6-((E)-2-Aminomethyl-3-fluoro-allyloxy)-pyridine-3-sulfonyl]-3-aza-bicyclo[3.1.0]hexane-6-carboxylic acid methylamide trifluoroacetate] | 43.4 µM | 0.162 µM | 0.012 µM | – | – | – | – | –
